The subject of data set [1] is leukemic cells isolated from hMRP8-PML/RARα transgenic mice. Description: Acute promyelocytic leukemia (APL) mouse model, survival. The data set is classed as in vivo. As to the method:
FIG. 9: Antp-AAC-11-LZ (363-399) peptide treatment of leukemic mice protects against disease progression. Mice were challenged with 10^4 leukemic cells isolated from hMRP8-PML/RARα transgenic mice, allowed to engraft for 10 d, and were then injected intraperitonaly each day for 7 consecutive days with Antp-AAC-11-LZ (363-399) peptide (1.8 mg/kg) or vehicle (normal saline solution), or subcutaneously implanted with a 21-d release pellet containing 5 mg ATRA (n=6 for each treatment). Mice were monitored for survival.
We use an established in vivo APL model based on syngenic grafts of leukemic blasts from hMRP8-PML/RARα transgenic mice, as described by Brown et al. (Brown et al., 1997). This model mimics human APL, both in its biological characteristics and its response to conventional therapeutic drugs such as all-trans retinoic acid (ATRA) and 100% of the mice die of the disease (Brown et al., 1997; Kogan et al., 2000; Lallemand-Breitenbach et al., 1999). […] leukemic cells isolated from bone marrow, spleen, or lymph nodes of leukemic hMRP8-PML/RARα transgenic mice (Brown et al., 1997) were injected into the tail vein of 6-7 week old syngeneic FVB/N mice. Establishment of leukemia was assessed by the appearance of high leukocyte and low platelet counts at around day 8 (Brown et al., 1997). Ten days after transplantation, mice implanted with leukemic cells were randomly assigned to either type of treatment (n=6). Antp-AAC-11-LZ (363-399) peptide (1.8 mg/kg) or vehicle (normal saline solution) was injected intraperitonaly each day for 7 consecutive days. Retinoic acid was administrated by subcutaneous implantation of a 21-d release pellet containing 5 mg ATRA (Innovative Research of America). Mice were then monitored for survival.

Data set [2] has as its system A549 cells. Kind of data set: Cell viability (MTT) of A549 cells under low serum / serum deprivation. The data set is classed as cell-based. To be noted: for induction of cell death of A549 cells: 10 μM, serum deprivation, FIG. 1C; for induction of cell death of A549 cells / cytotoxicity (decrease of A549 viability) relative to comparison peptide, dose-response: 24 hours; for cytotoxicity (decrease of A549 viability) relative to comparison peptide, dose-response: various concentrations, low-serum conditions, FIG. 2A / 5A; for cellular viability: 2 µM. As for the experimental part: (A) Karpas 1106, SU-DHL-5, SeAx and HUT-78 cells were plated at a densities of 6×10^3 in 96 well plates (100 μL total volume per well) and treated for 24 hours in a 37° C. incubator (5% CO2) with increasing concentrations of the Antp-AAC-11-LZ (363-399). 20 μL MTS reagent was then added to each well and plates were incubated for an additional 4 hours. Absorbance was measured at 490 nm using a 96-well plate reader. The extent to which the Antp-AAC-11-LZ (363-399) peptide inhibited cell proliferation was calculated as a percentage of the absorbance in each well containing the Antp-AAC-11-LZ (363-399) peptide relative to wells containing no peptide (negative control). Each bar represents the mean±s.d. from at least three independent experiments. (B) Indicated cells were plated at a densities of 4.5×10^3 in 96 well plates (100 μL total volume per well) and allowed to attach overnight in a 37° C. incubator (5% CO2). Media was removed from cells and replaced with media containing Antp-AAC-11-LZ (363-399) peptide at various concentrations (100 μL total volume per well) peptide and the plates were incubated for 24 hours. The MTT assay was then completed and data analysis was performed as described herein. […] A549 cells were plated at a densities of 4.5×10^3 in 96 well plates (100 μL total volume per well) and allowed to attach overnight in a 37° C. incubator (5% CO2). Media was removed from cells and replaced with media containing the indicated peptides at 10 μM (100 μL total volume per well) and the plates were incubated for 24 hours. The MTT assay was then completed and data analysis was performed as described herein.
(A) A549 cells were plated at a densities of 4.5×10^3 in 96 well plates (100 μL total volume per well) and allowed to attach overnight in a 37° C. incubator (5% CO2). Media was removed from cells and replaced with media containing the indicated peptides at various concentrations (100 μL total volume per well) peptide in the absence of serum and the plates were incubated for 24 hours. The MTT assay was then completed and data analysis was performed as described herein. (B) A549 or HaCat cells were plated at a densities of 4.5×10^3 in 96 well plates (100 μL total volume per well) and allowed to attach overnight in a 37° C. incubator (5% CO2). Media was removed from cells and replaced with media containing the indicated peptides at 10 μM (100 μL total volume per well) peptide in the absence of serum and the plates were incubated for 24 hours. The MTT assay was then completed and data analysis was performed as described herein.
A549 cells were plated at a densities of 4.5×10^3 in 96 well plates (100 μL total volume per well) and allowed to attach overnight in a 37° C. incubator (5% CO2). Cells were left untreated or pre-treated with 100 μM Z-VAD-FMK for 2 h. […] The MTT assay was then completed and data analysis was performed as described herein.
(A) A549 cells were plated at a densities of 4.5×10^3 in 96 well plates (100 μL total volume per well) and allowed to attach overnight in a 37° C. incubator (5% CO2). Media was removed from cells and replaced with media containing the indicated Antp-AAC-11-LZ peptides at various concentrations (100 μL total volume per well) peptide and the plates were incubated for 24 hours. The MTT assay was then completed and data analysis was performed as described herein. (B) A549 or HaCat cells were plated at a densities of 4.5×10^3 in 96 well plates (100 μL total volume per well) and allowed to attach overnight in a 37° C. incubator (5% CO2). Media was removed from cells and replaced with media containing the indicated peptides at 10 μM (100 μL total volume per well) peptide in the absence of serum and the plates were incubated for 24 hours. The MTT assay was then completed and data analysis was performed as described herein.

Data set [3] has as its system human triple-negative breast cancer xenograft PDX01. Description: Triple-negative breast cancer patient-derived xenograft PDX01 in nude mice. The data set is classed as in vivo. As to conditions: 2.4 mg/kg i.p., 7 daily injections, p=0.01. As to the method:
(§1) Breast cancer fragments were obtained from patients at the time of surgery, with informed written patient consent. After imaging-guided human tumor biopsies had been performed, fragments of 30 to 60 mm^3 were subcutaneously grafted in 6-week-old NMRI-nude mice (Centre-Elevage-Janvier, France), under xylasin (10 mg/kg)/ketamin (100 mg/kg) anesthesia. Mice were maintained in specific pathogen-free animal housing (Institut Universitaire d'Hematologie) and received estrogen (17 mg/mL) diluted in drinking water. Xenografts were characterized and subsequently subcutaneously transplanted from mouse to mouse. […] Two human triple-negative breast cancer (HBC) xenografts models were used in our experiments (PDX01 and PDX02). […] Following transplantation (n=6 per model) tumor growth was assessed by measuring tumor size in two dimension using a Vernier caliper. Tumor volume was calculated using the formula [3.14×long axis×short axis×short axis]/6 (Kjonniksen et al., 1989). […] Mice were weighted and the tumor size was measured by a caliper and recorded daily. Fourteen days after beginning of the treatment mice were sacrificed. The tumors, kidney, lungs, heart, liver, pancreas and spleen were taken and fixed. Paraffin-embedded sections were prepared and stained with hematoxylin and eosin for histological analysis.
Background: A xenograft is tissue or cells of one species grown in another, often human tumour cells in immunodeficient mice.

In data set [4] the test system is human triple-negative breast cancer xenograft PDX02. Kind of data set: Triple-negative breast cancer patient-derived xenograft PDX02 in nude mice. To be noted: 2.4 mg/kg i.p., 7 daily injections, p=0.01. The data set is classed as in vivo. As to the method: as §1
The test system of data set [5] is HaCat cells. Kind of data set: Cell viability (MTT) of nonmalignant HaCat cells in the absence of serum. The data set is classed as cell-based. To be noted: 10 μM, 24 hours, FIG. 2B / 5B. As for the experimental part:
FIG. 2: TAT-AAC-11-LZ (363-399), RI-TAT-AAC-11-LZ (363-399) and Cter-Antp-AAC-11-LZ (363-399) peptides preferentially kill tumor cells. (A) A549 cells were plated at a densities of 4.5×10^3 in 96 well plates (100 μL total volume per well) and allowed to attach overnight in a 37° C. incubator (5% CO2). Media was removed from cells and replaced with media containing the indicated peptides at various concentrations (100 μL total volume per well) peptide in the absence of serum and the plates were incubated for 24 hours. The MTT assay was then completed and data analysis was performed as described herein. (B) A549 or HaCat cells were plated at a densities of 4.5×10^3 in 96 well plates (100 μL total volume per well) and allowed to attach overnight in a 37° C. incubator (5% CO2). Media was removed from cells and replaced with media containing the indicated peptides at 10 μM (100 μL total volume per well) peptide in the absence of serum and the plates were incubated for 24 hours. […]
Viability of cells cultured in the 96-well culture plates was assessed by measuring mitochondrial dehydrogenase activity, using the colorimetric CellTiter 96® AQueous One Solution Cell Proliferation Assay (Promega), according to the manufacturer′ instructions. […] The color can then be quantified using a simple colorimetric assay. The results are read on a multiwall scanning spectrophotometer (ELISA reader).

The subject of data set [6] is D3H2LN cells. Description: Proliferation of D3H2LN cells (not showed). The data set is classed as cell-based.

Entries after “also recorded” stand apart in the source; their conditions may differ. Non-standard residues stand in square brackets, D forms with d.

With `CC1=C(/C=C/C(C)=C/C=C/C(C)=C/C(=O)O)C(C)(C)CCC1` [ATRA, all-trans retinoic acid, reference compound], in data set [1] (n=6 per treatment), the “mice surviving up to 67 d” value is given as “one mouse”. This molecule also came in with a mean survival time in data set [1] (peptide 1.8 mg/kg i.p. daily for 7 days, ATRA 5 mg 21-d release pellet s.c., from day 10 after graft, n=6) of 56 days.

For the molecule “AAC-11-LZ (363-399): AKLNAEKLKDFKIRLQYFARGLQVYIRQLRLALQGKT (SEQ ID NO: 3) (Synthetic AAC-11-LZ (363-399))”, in data set [2], the “induction of cell death of A549 cells” value is recorded as “neither the Penetratin peptide alone, the AAC-11-LZ (363-399) peptide without the Penetratin linkage nor the mutant peptide Antp-AAC-11-LZ (363-399) L/G did induce cell death”. The “final mean tumor volume relative to control-treated mice” value in data set [3] was “less than 35%”; in data set [4], “less than 50%”.

On to “Ac-RQIKIWFKKQNRRMKWKKFARGLQVYIRQLRLALQGKT-NH2 [Antp-AAC-11-LZ (380-399)]”, for which, in data set [2], the “cytotoxicity (decrease of A549 viability) relative to comparison peptide, dose-response” value was “substantial but weaker cell death than the Antp-AAC-11-LZ (363-399) peptide”.

On to “Ac-RQIKIWFKKQNRRMKWKKKDFKIRLQYFARGLQVYIRQL-NH2 [Antp-AAC-11-LZ (371-391)]”, for which the “cytotoxicity (decrease of A549 viability) relative to comparison peptide, dose-response” value in data set [2] is listed as “reduced cytotoxicity compared with the Antp-AAC-11-LZ (371-399) peptide; also recorded: significantly higher cell death compared with the Antp-AAC-11-LZ (363-399) parent peptide”.

Turning to “Ac-RQIKIWFKKQNRRMKWKKKDFKIRLQYFARGLQVYIRQLRLALQG-NH2 [Antp-AAC-11-LZ (371-397)]”, in data set [2], the “cytotoxicity (decrease of A549 viability) relative to comparison peptide, dose-response” value is given as “reduced cytotoxicity compared with the Antp-AAC-11-LZ (371-399) peptide; also recorded: significantly higher cell death compared with the Antp-AAC-11-LZ (363-399) parent peptide”.

On to “Ac-RQIKIWFKKQNRRMKWKKKDFKIRLQYFARGLQVYIRQLRLALQGKT-NH2 [Antp-AAC-11-LZ (371-399)]”, for which, in data set [2], the cellular viability is recorded as 33.2 % of control and the “cytotoxicity (decrease of A549 viability) relative to comparison peptide, dose-response” value was “markedly increased cytotoxicity potency compared to the parent peptide”.

For “Ac-RQIKIWFKKQNRRMKWKKLQYFARGLLRLALQGKT-NH2 [Antp-AAC-11-LZ (377-399 4385-390)]”, in data set [2], the cellular viability is reported as 3 % of control and the “cytotoxicity (decrease of A549 viability) relative to comparison peptide, dose-response” value was “highest activity”.

In the case of “Ac-YGRKKRRQRRRGGGAKLNAEKLKDFKIRLQYFARGLQVYIRQLRLALQGKT-NH2 [TAT-AAC-11-LZ (363-399)]”, the “cytotoxicity (decrease of A549 viability) relative to comparison peptide, dose-response” value in data set [2] is given as “at least as effective as compared to the Antp-AAC-11-LZ (363-399) peptide”. Further, in data set [5], the “cytotoxicity in nonmalignant cells” value is listed as “largely more resistant”. Further, the “proliferation at the concentrations used for migration” value in data set [6] is “neither the Antp-AAC-11-LZ (363-399) or TAT-AAC-11-LZ (363-399) peptides impaired proliferation”.

For the molecule “Ac-[dR][dR][dR][dQ][dR][dR][dK][dK][dR]G[dY]G[dT][dK]G[dQ][dL][dA][dL][dR][dL][dQ][dR][dI][dY][dV][dQ][dL]G[dR][dA][dF][dY][dQ][dL][dR][dI][dK][dF][dD][dK][dL][dK][dE][dA][dN][dL][dK][dA]-NH2 [RI-TAT-AAC-11-LZ (363-399)]”, the “cytotoxicity (decrease of A549 viability) relative to comparison peptide, dose-response” value in data set [2] was “more effective than the TAT-AAC-11-LZ (363-399) peptide”. Besides, in data set [5], the “cytotoxicity in nonmalignant cells” value is “very little cytotoxicity”.

With “Antp-AAC-11-LZ (363-399) L/G: RQIKIWFKKQNRRMKWKKAKLNAEKLKDFKIRGQYFARGGQVYIRQGRLALQGKT (SEQ ID NO: 5), leucines 377, 384 and 391 mutated to glycines (Ac-RQIKIWFKKQNRRMKWKKAKLNAEKLKDFKIRGQYFARGGQVYIRQGRLALQGKT-NH2)”, in data set [2], the “induction of cell death of A549 cells” value is “neither the Penetratin peptide alone, the AAC-11-LZ (363-399) peptide without the Penetratin linkage nor the mutant peptide Antp-AAC-11-LZ (363-399) L/G did induce cell death”.
